Source: patent EP0497314A1, “Use of azapirones in attention deficit hyperactivity disorder” (Bristol-Myers Squibb Company, priority 1991, dated 1992)
Marks after values point to notes of the source that are not given here.

Key:
[1] = test system: fronto-occipital cortex of the cat; experiment: Quantitative EEG, fronto-occipital cat cortex, subcutaneous administration; assay type: in vivo, cats; conditions: in vivo
Description: This unique combination of activity may render buspirone useful in the treatment of childhood hyperkinesis which has been reported to respond to both selected phenothiazine and stimulant drugs. • (b) Adult mongrel female cats weighing 2.5-4.0 kg were implanted with EEG recording electrodes. Recording sites were as follows: fronto-occipital cortex, basal amygdala and ventral hippocampus.
Animals were individually held in canvas feline restraining bags for EEG recording. The EEG of each brain area was recorded on a separate channel. The instrumentation filtered each channel of EEG and analog data into five distinct frequency bands: Δ=0.5-3.5 Hz, ϑ=3.5-7.0 Hz, α=7-13 Hz, β=13-25 Hz and γ=25-40 Hz. The EEG analyzer then integrated the filtered waveforms and sent pulses to an associated computer at a rate proportional to the electrical energy of each band. Data collecting procedures were essentially the same as reported in Example 1. However, groups of six animals each were used and all drugs were administered subcutaneously in saline solution as their respective salts, but all dosages were calculated as the free base. Recording was started 30 minutes after injection to insure adequate drug absorption for peak activity.
Drug-induced EEG changes were determined by comparing the post-treatment data to the pre-treatment control in the same animal. Statistical analysis was performed on change from control, in instrument counts, using multiple Student-t-paired-comparison test with P≦0.05 (Table 2). However, for clarity data are also presented as percent change from control (Figures 3, 4 and 5).
The data in Table 2 are drug-induced changes resulting from the minimum and higher doses of each compound required to elicit the EEG profile characteristic of that particular drug.

rabbit cortex = experiment: Quantitative EEG, rabbit cortex, intravenous administration; assay type: in vivo, rabbits; conditions: rabbit, in vivo
Experimental: At least 2 weeks were allowed for recovery before beginning experimentation.
Groups of four animals each were individually restrained and connected to an EEG amplifier and frequency analyzer. The EEG of each animal was recorded on a separate channel. The instrumentation filtered each channel of EEG analog data into five distinct frequency bands: Δ=0.5-3.5 Hz, ϑ=3.5-7.0 Hz, α=7-13 Hz, β=13-25 Hz and γ=25-40 Hz. The EEG analyzer then integrated the filtered waveforms and sent pulses to an associated computer at a rate proportional to the electrical energy of each band. Thus, one computer print-out provided a cortical EEG profile for the entire group of four rabbits.
Data from a one-hour recording period were collected in four 15-minute periods, which provided additional information concerning both onset and time of peak effect of drug activity. However, in this report only the mean activity of the four data collection periods was considered since onset of drug activity was immediate and duration of action was at least one hour for all drugs studied. Drug-induced EEG changes were determined by comparing the post-treatment print-out to the pretreatment control in the same animal and statistical analysis was performed on change from control, in counts, using multiple Student-t paired-comparison tests with p≦0.05 (Table 1). However, for clarity data are also presented as percent change from control (Figures 1 and 2).
All drugs were administered intravenously in saline solution as their respective salts and all dosage calculations were based on the free base. Recording was started immediately after injection and animals were not used more often than once per week. Initial doses were reduced geometrically until a no-effect dose was determined for each drug. However, only the "no-effect" data and the data generated from the next higher dose are presented in this report since the shape of the EEG profile is not dose-related, as opposed to the magnitude of the response which is dose-related.

C[C@H](N)Cc1ccccc1 [Dextroamphetamine 1/2H2SO4, dextroamphetamine]
the minimum dose required to produce the EEG profile characteristic of that particular drug [1]: 0.125‡ mg/kg, s.c. | the no-effect dose [1]: 0.0625† mg/kg, s.c. | relative potency by comparing minimal doses required to elicit EEG profiles ([1]; sc): approximately twice as potent as buspirone and methylphenidate | group percent change in electrical energy from pre-drug control, Δ band ([1]; sc, 0.0625 mg/kg): -18 ± 6 (-8) percent | group percent change in electrical energy from pre-drug control, α band ([1]; sc, 0.0625 mg/kg): -12 ± 8 (-8) percent | group percent change in electrical energy from pre-drug control, β band ([1]; sc, 0.0625 mg/kg): +1 ± 5 (+1) percent | group percent change in electrical energy from pre-drug control, γ band ([1]; sc, 0.0625 mg/kg): +2 ± 3 (+2) percent | group percent change in electrical energy from pre-drug control, θ band ([1]; sc, 0.0625 mg/kg): -15 ± 7 (-10) percent | mean change ± S.E. in electrical energy from pre-drug control, Δ band ([1]; sc, 0.0625 mg/kg): -18 ± 6 (-8) instrument counts | mean change ± S.E. in electrical energy from pre-drug control, α band ([1]; sc, 0.0625 mg/kg): -12 ± 8 (-8) instrument counts | mean change ± S.E. in electrical energy from pre-drug control, β band ([1]; sc, 0.0625 mg/kg): +1 ± 5 (+1) instrument counts | mean change ± S.E. in electrical energy from pre-drug control, γ band ([1]; sc, 0.0625 mg/kg): +2 ± 3 (+2) instrument counts | mean change ± S.E. in electrical energy from pre-drug control, θ band ([1]; sc, 0.0625 mg/kg): -15 ± 7 (-10) instrument counts | group percent change in electrical energy from pre-drug control, Δ band ([1]; sc, 0.125 mg/kg): -85 ± 21 (-35) percent | group percent change in electrical energy from pre-drug control, α band ([1]; sc, 0.125 mg/kg): -29 ± 9 (-26) percent | group percent change in electrical energy from pre-drug control, β band ([1]; sc, 0.125 mg/kg): -3 ± 4 (-3) percent | group percent change in electrical energy from pre-drug control, γ band ([1]; sc, 0.125 mg/kg): +8 ± 2 (+12) percent | group percent change in electrical energy from pre-drug control, θ band ([1]; sc, 0.125 mg/kg): -44 ± 8 (-33) percent | mean change ± S.E. in electrical energy from pre-drug control, Δ band ([1]; sc, 0.125 mg/kg): -85 ± 21 (-35) instrument counts | mean change ± S.E. in electrical energy from pre-drug control, α band ([1]; sc, 0.125 mg/kg): -29 ± 9 (-26) instrument counts | mean change ± S.E. in electrical energy from pre-drug control, β band ([1]; sc, 0.125 mg/kg): -3 ± 4 (-3) instrument counts | mean change ± S.E. in electrical energy from pre-drug control, γ band ([1]; sc, 0.125 mg/kg): +8 ± 2 (+12) instrument counts | mean change ± S.E. in electrical energy from pre-drug control, θ band ([1]; sc, 0.125 mg/kg): -44 ± 8 (-33) instrument counts | group percent change in electrical energy from pre-drug control, Δ band ([1]; sc, 0.5 mg/kg): -78 ± 32 (-33) percent | group percent change in electrical energy from pre-drug control, α band ([1]; sc, 0.5 mg/kg): -71 ± 11 (-51) percent | group percent change in electrical energy from pre-drug control, β band ([1]; sc, 0.5 mg/kg): -18 ± 9 (-15) percent | group percent change in electrical energy from pre-drug control, γ band ([1]; sc, 0.5 mg/kg): +18 ± 4 (+25) percent | group percent change in electrical energy from pre-drug control, θ band ([1]; sc, 0.5 mg/kg): -76 ± 13 (-51) percent | mean change ± S.E. in electrical energy from pre-drug control, Δ band ([1]; sc, 0.5 mg/kg): -78 ± 32 (-33) instrument counts | mean change ± S.E. in electrical energy from pre-drug control, α band ([1]; sc, 0.5 mg/kg): -71 ± 11 (-51) instrument counts | mean change ± S.E. in electrical energy from pre-drug control, β band ([1]; sc, 0.5 mg/kg): -18 ± 9 (-15) instrument counts | mean change ± S.E. in electrical energy from pre-drug control, γ band ([1]; sc, 0.5 mg/kg): +18 ± 4 (+25) instrument counts | mean change ± S.E. in electrical energy from pre-drug control, θ band ([1]; sc, 0.5 mg/kg): -76 ± 13 (-51) instrument counts | group percent change in electrical energy from pre-drug control, Δ band ([1]; sc, 4 mg/kg): +64 ± 27 (+29) percent | group percent change in electrical energy from pre-drug control, α band ([1]; sc, 4 mg/kg): -44 ± 13 (-35) percent | group percent change in electrical energy from pre-drug control, β band ([1]; sc, 4 mg/kg): -6 ± 9 (-5) percent | group percent change in electrical energy from pre-drug control, γ band ([1]; sc, 4 mg/kg): +50 ± 8 (+63) percent | group percent change in electrical energy from pre-drug control, θ band ([1]; sc, 4 mg/kg): -34 ± 13 (-24) percent | mean change ± S.E. in electrical energy from pre-drug control, Δ band ([1]; sc, 4 mg/kg): +64 ± 27 (+29) instrument counts | mean change ± S.E. in electrical energy from pre-drug control, α band ([1]; sc, 4 mg/kg): -44 ± 13 (-35) instrument counts | mean change ± S.E. in electrical energy from pre-drug control, β band ([1]; sc, 4 mg/kg): -6 ± 9 (-5) instrument counts | mean change ± S.E. in electrical energy from pre-drug control, γ band ([1]; sc, 4 mg/kg): +50 ± 8 (+63) instrument counts | mean change ± S.E. in electrical energy from pre-drug control, θ band ([1]; sc, 4 mg/kg): -34 ± 13 (-24) instrument counts | the minimum dose required to produce the EEG profile characteristic of that particular drug (rabbit cortex): 0.25‡ mg/kg, i.v. | the no-effect dose (rabbit cortex): 0.125† mg/kg, i.v. | relative potency by comparing minimal doses required to elicit EEG profiles (rabbit cortex; iv): approximately twice as potent as buspirone | group percent change in electrical energy from pre-drug control, Δ band (rabbit cortex; iv, 0.125 mg/kg): +4 ± 17 (+2) percent | group percent change in electrical energy from pre-drug control, α band (rabbit cortex; iv, 0.125 mg/kg): 0 ± 9 (0) percent | group percent change in electrical energy from pre-drug control, β band (rabbit cortex; iv, 0.125 mg/kg): +2 ± 6 (+1) percent | group percent change in electrical energy from pre-drug control, γ band (rabbit cortex; iv, 0.125 mg/kg): +1 ± 1 (+1) percent | group percent change in electrical energy from pre-drug control, θ band (rabbit cortex; iv, 0.125 mg/kg): -9 ± 6 (-5) percent | mean change ± S.E. in electrical energy from pre-drug control, Δ band (rabbit cortex; iv, 0.125 mg/kg): +4 ± 17 (+2) instrument counts | mean change ± S.E. in electrical energy from pre-drug control, α band (rabbit cortex; iv, 0.125 mg/kg): 0 ± 9 (0) instrument counts | mean change ± S.E. in electrical energy from pre-drug control, β band (rabbit cortex; iv, 0.125 mg/kg): +2 ± 6 (+1) instrument counts | mean change ± S.E. in electrical energy from pre-drug control, γ band (rabbit cortex; iv, 0.125 mg/kg): +1 ± 1 (+1) instrument counts | mean change ± S.E. in electrical energy from pre-drug control, θ band (rabbit cortex; iv, 0.125 mg/kg): -9 ± 6 (-5) instrument counts | group percent change in electrical energy from pre-drug control, α band (rabbit cortex; iv, 0.25 mg/kg): +27 ± 9 (-22) percent | group percent change in electrical energy from pre-drug control, β band (rabbit cortex; iv, 0.25 mg/kg): -21 ± 6 (-20) percent | group percent change in electrical energy from pre-drug control, γ band (rabbit cortex; iv, 0.25 mg/kg): -4 ± 1 (-5) percent | group percent change in electrical energy from pre-drug control, θ band (rabbit cortex; iv, 0.25 mg/kg): -35 ± 9 (-25) percent | mean change ± S.E. in electrical energy from pre-drug control, Δ band (rabbit cortex; iv, 0.25 mg/kg): -64 ± 19 (-33) instrument counts | mean change ± S.E. in electrical energy from pre-drug control, β band (rabbit cortex; iv, 0.25 mg/kg): -21 ± 6 (-20) instrument counts | mean change ± S.E. in electrical energy from pre-drug control, γ band (rabbit cortex; iv, 0.25 mg/kg): -4 ± 1 (-5) instrument counts | mean change ± S.E. in electrical energy from pre-drug control, θ band (rabbit cortex; iv, 0.25 mg/kg): -35 ± 9 (-25) instrument counts
